Measured values published in patent US6710075B2, “Therapeutic compounds and methods” (The Government of the State of Sarawak, Malaysia, priority 2000, dated 2004).
Read-outs that look alike come from different tables or passages of the source.

Key:
786-0 = test: NCI in vitro anticancer drug discovery screen (sulforhodamine B); format: cell-based; settings: Homo sapiens; for CC50: 786-0, 48 h, read-out: LC50 (the source's name)
Experimental: (§1) (c) Testing of Compound A against a much larger cell line panel in the NCI in vitro anticancer screen (Table 7) confirmed the results described above. […] Consistent with the data in Table 5 the cytotoxic effects measured after 2 days of culture were more varied with LC50 values ranging from 10 nM for COLO-205 colon tumour cells to ˜90 μM for 786-0 renal tumour cells.

HT29 = test: as above; format: cell-based; settings: Homo sapiens, HT-29, HT29, colon, 48 hr
Experimental: as §1

OVCAR-5 = test: as above; format: cell-based; settings: Homo sapiens, OVCAR-5, ovarian, 48 hr
Experimental: as §1

SF-295 = test: as above; format: cell-based; settings: Homo sapiens, SF-295, brain, 48 hr
Experimental: as §1

A549 cells = test: Relative cell size by forward light scatter (flow cytometry); format: cell-based, human; settings: for % increase in mean cell volume: six days
Experimental: It is well known that cell proliferation and cell growth reflected as increased mass of individual cells are biochemically separable processes (Pardee, Science, 1989, 246:603-8). Although at certain concentrations Compound A can inhibit cell proliferation without overt cytotoxicity it was also evaluated whether Compound A also affected cell growth. For these experiments A549 cells were treated with various non-cytotoxic doses of Compound A up to 10 nM and the relative cell size determined after 6 days of culture by measuring forward light scatter using a flow cytometer. […] This occurred only at concentrations which are cytostatic for this cell type.

[1] = Body weight in the mouse xenograft tumour model; format: in vivo
Experimental: The ability of Compound A to inhibit growth of human tumour cells in vivo was assessed using male athymic mice injected subcutaneously in the dorsal flank region with 2×10^6 PC3 human prostate tumour cells. Compound A administration (3 mg/kg) by intraperitoneal injection commenced after eight days once the PC3 tumour was palpable and continued three times a week until 29 days after the initial inoculation of the tumour cells. At this time all mice were killed and tumours excised and weighed.

[2] = read-out: LC50 (the source's name)

## COC(=O)[C@H]1[C@@H](O)[C@@]2(O)c3c(OC)cc(OC4OC(C(O)CO)COC4OC)cc3O[C@@]2(c2ccc(OC)cc2)[C@@H]1c1ccccc1 (single isomer, unassigned) [Compound A]
786-0; 786-0, renal, 48 hr
  CC50: 91200 nM
  GI50: < 10 nM
786-0; 786-0 renal tumour cells, 2 days of culture
  CC50: ~90000 nM
HT29
  GI50: < 10 nM
HT29; [2]
  CC50: 1000 nM
OVCAR-5
  GI50: < 10 nM
OVCAR-5; [2]
  CC50: 1000 nM
SF-295
  GI50: < 10 nM
SF-295; [2]
  CC50: 1230 nM
A549 cells; A549, 2.5 nM
  % increase in mean cell volume: 10.4%
A549 cells; A549, 5.0 nM
  % increase in mean cell volume: 10.7%
A549 cells; A549, 10.0 nM
  % increase in mean cell volume: 22.4%
A549 cells; A549, non-cytotoxic doses up to 10 nM, 6 days
  increase in the mean forward scatter: over 20%
[1]; 3 mg/kg intraperitoneal three times a week, vs control
  body weight: unaffected
[1]; over the duration of the experiment, similar in control group
  decrease in mean body weight: ~12%
